Reference: patent publication US11174245B2, “Benzimidazole compounds and derivatives as EGFR inhibitors” (Boehringer Ingelheim International GmbH, priority 2018, dated 2021)
Like-named read-outs stand apart in the source and are kept apart here.

Columns and labels:
[1] = biological target: EGFR (mutated) 695-1022, T790M, C797S, L858R (Homo sapiens (Human), UniProt P00533, C797S/L858R/T790M); assay: Biochemical EGFR inhibition assay (TR-FRET, poly-GT substrate), EGFR T790M C797S L858R
Method: (§1) Biochemical EGFR Inhibition Assays
(§2) Initially, the inhibitory effect of compounds according to the invention is measured in biochemical assays which measure the phosphorylation activity of EGFR enzyme forms on poly-GT substrate in the presence of different concentrations of ATP (5 μM and 100 μM final assay concentration).
(§3) The following enzyme forms of EGFR are representative examples that can be used in these assays at the given concentrations:
(§4) For the chosen highest assay concentration of 100 μM, 150 nL of compound solution is transferred from a 10 mM DMSO compound stock solution. A series of eleven fivefold dilutions per compound is transferred to the assay plate, compound dilutions are tested in duplicates. DMSO is added as backfill to a total volume of 150 nL. The assay runs on a fully automated robotic system.
(§5) These biochemical EGFR enzyme form compound dose-response assays quantify the kinase activity via phosphorylation of a tagged poly-GT substrate. The results of the assay are provided as IC50 values.

EGFR wt = EGFR wt (Homo sapiens (Human), UniProt P00533); assay: Biochemical EGFR inhibition assay (TR-FRET, poly-GT substrate), EGFR wt
Method: as §1, §2, §3, §4, §5

[2] = biological target: EGFR del19 T790M C797S protein in Ba/F3 cells (Homo sapiens, UniProt P00533, C797S/DEL746-750/T790M); assay: pEGFR assay (AlphaScreen Surefire, EGFR Tyr1068 phosphorylation); format: cell-based
Method: Transduced cells were selected using puromycin. Following selection, IL-3 was withdrawn and IL-3 independent cells cultured. p-EGFR Tyr1068 was determined using the AlphaScreen Surefire pEGF Receptor (Tyr1068) Assay (PerkinElmer, TGRERS). […] Subsequently, 60.000 cells/well in 60 μL were added. Cells were incubated with compound for 4 h at 37° C. […] The mixture was incubated at room temperature with shaking (700 rpm) for 20 min. After centrifugation, 4 μL of the lysate were transferred to Proxiplates. […] Plates were shaken for 1 min (1400 rpm) and incubated for 2 h at room temperature in the dark.
The results of the assay are provided as IC50 values (see table 12).

[3] = read-out: LR_TM_CS (100 μM ATP) IC50, 100 μM ATP
[4] = read-out: wt (100 μM ATP) IC50, 100 μM ATP
[5] = read-out: LR_TM_CS (5 μM ATP) IC50, 5 μM ATP
[6] = read-out: wt (5 μM ATP) IC50, 5 μM ATP

Chain of EGFR (mutated) 695-1022, T790M, C797S, L858R (P00533 695-1022 T790M/C797S/L858R): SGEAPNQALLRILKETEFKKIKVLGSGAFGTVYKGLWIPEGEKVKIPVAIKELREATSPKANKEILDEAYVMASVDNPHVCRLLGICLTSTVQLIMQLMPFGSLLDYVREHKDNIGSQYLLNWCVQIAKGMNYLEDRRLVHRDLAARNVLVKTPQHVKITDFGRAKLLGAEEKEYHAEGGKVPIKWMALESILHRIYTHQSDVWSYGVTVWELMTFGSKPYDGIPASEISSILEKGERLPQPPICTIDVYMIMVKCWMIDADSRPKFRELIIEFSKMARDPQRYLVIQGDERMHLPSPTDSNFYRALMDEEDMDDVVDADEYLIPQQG
Chain of EGFR del19 T790M C797S protein in Ba/F3 cells (P00533 with tags, fused parts or gaps C797S/DEL746-750/T790M limits assumed): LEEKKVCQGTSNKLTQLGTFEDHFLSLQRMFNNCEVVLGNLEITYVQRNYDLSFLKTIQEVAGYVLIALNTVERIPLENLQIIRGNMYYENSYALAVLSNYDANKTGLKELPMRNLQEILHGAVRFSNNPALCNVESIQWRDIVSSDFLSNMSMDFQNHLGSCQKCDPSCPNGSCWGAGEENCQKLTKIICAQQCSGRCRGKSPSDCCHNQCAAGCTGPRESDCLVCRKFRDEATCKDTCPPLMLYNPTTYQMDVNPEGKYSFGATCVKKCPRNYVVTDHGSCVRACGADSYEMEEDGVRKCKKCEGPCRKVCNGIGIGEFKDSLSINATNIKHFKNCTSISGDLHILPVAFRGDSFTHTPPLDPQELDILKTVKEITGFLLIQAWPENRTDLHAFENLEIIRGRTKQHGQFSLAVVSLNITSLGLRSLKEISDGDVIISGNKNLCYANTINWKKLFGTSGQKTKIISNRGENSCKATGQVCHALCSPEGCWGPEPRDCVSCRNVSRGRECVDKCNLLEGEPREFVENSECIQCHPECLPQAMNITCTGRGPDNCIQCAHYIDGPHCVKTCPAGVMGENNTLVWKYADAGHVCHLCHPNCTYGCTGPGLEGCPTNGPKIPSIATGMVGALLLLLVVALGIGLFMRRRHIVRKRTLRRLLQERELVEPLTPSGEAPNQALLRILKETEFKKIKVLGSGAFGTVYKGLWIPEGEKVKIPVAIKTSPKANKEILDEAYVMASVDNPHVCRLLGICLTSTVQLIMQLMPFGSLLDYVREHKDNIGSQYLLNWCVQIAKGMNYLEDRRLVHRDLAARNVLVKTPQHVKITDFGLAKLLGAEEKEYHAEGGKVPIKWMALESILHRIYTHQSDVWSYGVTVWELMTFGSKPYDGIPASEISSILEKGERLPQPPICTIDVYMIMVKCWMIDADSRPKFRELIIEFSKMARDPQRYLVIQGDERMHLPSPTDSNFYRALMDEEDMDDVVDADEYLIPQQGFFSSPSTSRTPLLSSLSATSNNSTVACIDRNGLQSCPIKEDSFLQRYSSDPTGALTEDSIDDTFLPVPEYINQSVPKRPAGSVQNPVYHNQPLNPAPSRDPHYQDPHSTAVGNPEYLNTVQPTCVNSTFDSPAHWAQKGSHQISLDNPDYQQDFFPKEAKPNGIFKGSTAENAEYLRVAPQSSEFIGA
Chain of EGFR wt (P00533 25-1210): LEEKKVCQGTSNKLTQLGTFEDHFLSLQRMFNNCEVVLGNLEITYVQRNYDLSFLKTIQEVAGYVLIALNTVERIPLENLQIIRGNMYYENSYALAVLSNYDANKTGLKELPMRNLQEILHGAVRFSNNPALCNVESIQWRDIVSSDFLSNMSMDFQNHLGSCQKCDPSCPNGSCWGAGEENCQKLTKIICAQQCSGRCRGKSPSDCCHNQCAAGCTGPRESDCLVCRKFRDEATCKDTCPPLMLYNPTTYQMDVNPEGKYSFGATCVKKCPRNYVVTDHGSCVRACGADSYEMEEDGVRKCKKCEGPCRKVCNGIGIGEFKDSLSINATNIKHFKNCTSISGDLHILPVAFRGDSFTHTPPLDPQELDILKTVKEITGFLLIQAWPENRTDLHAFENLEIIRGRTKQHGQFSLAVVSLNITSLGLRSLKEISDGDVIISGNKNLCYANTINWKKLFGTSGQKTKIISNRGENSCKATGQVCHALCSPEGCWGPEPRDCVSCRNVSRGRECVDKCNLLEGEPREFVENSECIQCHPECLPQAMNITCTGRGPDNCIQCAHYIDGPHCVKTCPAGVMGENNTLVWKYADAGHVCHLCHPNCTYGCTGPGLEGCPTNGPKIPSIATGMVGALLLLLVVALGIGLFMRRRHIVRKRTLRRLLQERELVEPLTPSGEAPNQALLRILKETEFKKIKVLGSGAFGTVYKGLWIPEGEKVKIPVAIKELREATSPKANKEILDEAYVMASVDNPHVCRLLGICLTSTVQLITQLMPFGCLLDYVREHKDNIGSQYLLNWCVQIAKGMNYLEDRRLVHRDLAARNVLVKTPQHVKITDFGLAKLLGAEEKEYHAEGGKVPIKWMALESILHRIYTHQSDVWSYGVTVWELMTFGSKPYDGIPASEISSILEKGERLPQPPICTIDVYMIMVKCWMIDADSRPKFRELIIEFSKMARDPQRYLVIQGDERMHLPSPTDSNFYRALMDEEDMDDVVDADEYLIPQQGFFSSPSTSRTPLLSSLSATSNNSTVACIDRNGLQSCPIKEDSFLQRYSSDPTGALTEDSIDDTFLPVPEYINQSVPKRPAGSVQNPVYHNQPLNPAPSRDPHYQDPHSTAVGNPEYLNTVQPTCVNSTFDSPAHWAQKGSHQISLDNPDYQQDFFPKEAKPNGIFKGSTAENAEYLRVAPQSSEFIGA

| SMILES | IC50 [1, 3] [nM] | IC50 (EGFR wt; [4]) [nM] | IC50 [2] [nM] | IC50 [1, 5] [nM] | IC50 (EGFR wt; [6]) [nM] |
| --- | --- | --- | --- | --- | --- |
| COc1ccncc1-c1cc(C(=O)/N=c2\[nH]c3ccccc3n2CC(C)(C)O)ccn1 [I-018] | 11.9 | 10000 | 1 |  |  |
| Cn1cc(-c2cc(C(=O)/N=c3\[nH]c4cc(C5CCN(C6CC6)CC5)ccc4n3CC(C)(C)O)ccn2)cn1 [I-042] | 24.3 | 14600 | 3 |  |  |
| CC(C)(O)Cn1/c(=N/C(=O)c2ccnc(-c3cccnc3)c2)[nH]c2cc(CCO)ccc21 [I-056] |  |  | 5 | 118 | > 100000 |
| COc1ccccc1-c1cc(C(=O)/N=c2\[nH]c3cc(CN4CCOCC4)ccc3n2CC(C)(C)O)ccn1 [I-060] |  |  | 1 | 0.7 | 65.6 |
| CC(C)(O)Cn1/c(=N/C(=O)c2ccnc(-c3ccccc3)c2)[nH]c2ccccc21 [I-064] | 267 | > 100000 | 9 | 13.1 | > 4000 |
| COCCCNc1ccc2c(c1)[nH]/c(=N\C(=O)c1ccnc(-c3cccnc3)c1)n2CC(C)(C)O [I-78] | 95.2 | 21100 | 5 |  |  |
| CC(C)(O)Cn1/c(=N/C(=O)c2ccnc(-c3cccn4cnnc34)c2)[nH]c2ccccc21 [I-91] |  |  | 16 | 61.1 | 14700 |
| CN(C)Cc1cccc(-c2cc(C(=O)/N=c3\[nH]c4ccccc4n3CC(C)(C)O)ccn2)c1 [I-102] | 13.7 | 6060 | 2 | 1 | 213 |
| COc1ccccc1-c1cc(C(=O)/N=c2\[nH]c3ccccc3n2CC(C)(C)O)ccn1 [I-105] | 10.3 | 1800 | 2 | 0.7 |  |
| O=C(/N=c1\[nH]c2ccccc2n1[C@H]1CC[C@@H](O)CC1)c1ccnc(-c2ccccc2)c1 [I-107] | 45.7 | > 100000 | 4 | 1.8 | 336 |
| COc1ccccc1-c1cc(C(=O)/N=c2\[nH]c3ccccc3n2[C@H]2CC[C@@H](O)CC2)ccn1 [I-108] | 10.3 | 1010 | 3 | 0.6 | 19.3 |
| Cc1ccc2c(c1)[nH]/c(=N\C(=O)c1ccnc(-c3cnn4cccnc34)c1)n2[C@H]1CC[C@@H](O)CC1 [I-110] | 3.7 | 4420 | 1 |  |  |
| Cc1ccc2c(c1)[nH]/c(=N\C(=O)c1ccnc(-c3cccc(CN(C)C)c3)c1)n2[C@H]1CC[C@@H](O)CC1 [I-111] | 10.3 | 7040 | 4 |  |  |
| Cn1cc(-c2cc(C(=O)/N=c3\[nH]c4ccccc4n3[C@H]3CCC[C@@H](O)C3)ccn2)cn1 [I-112] |  |  | 13 | 3.1 | 777 |
| CN(C)Cc1cccc(-c2cc(C(=O)/N=c3\[nH]c4ccccc4n3[C@H]3CC[C@@H](O)CC3)ccn2)c1 [I-114] | 18.6 | 6650 | 2 |  |  |
| O=C(/N=c1\[nH]c2ccccc2n1[C@H]1CC[C@@H](O)CC1)c1ccnc(-c2cnn3cccnc23)c1 [I-115] | 5.8 | 2420 | 1 |  |  |
| Cn1cc(-c2cc(C(=O)/N=c3\[nH]c4ccccc4n3[C@H]3CCC[C@H](O)C3)ccn2)cn1 [I-116] |  |  | 1 | 0.7 | 104 |
| COc1ccccc1-c1cc(C(=O)/N=c2\[nH]c3ccccc3n2[C@H]2CCC[C@@H](O)C2)ccn1 [I-118] |  |  | 3 | 0.7 | 34.5 |
| Cn1cc(-c2cc(C(=O)/N=c3\[nH]c4ccccc4n3[C@H]3CCC[C@@H](O)C3)ccn2)cn1 [I-126] |  |  | 6 | 3.1 | 305 |
| Cn1cc(-c2cc(C(=O)/N=c3\[nH]c4ccccc4n3[C@@H]3CCC[C@H](O)C3)ccn2)cn1 [I-128] |  |  | 7 | 4 | 1130 |
| CC(C)(O)Cn1/c(=N/C(=O)c2ccnc(-c3cccnc3)c2)[nH]c2cc(CC(=O)N3CCCCC3)ccc21 [I-130] | 178 | > 100000 | 5 |  |  |
| COC[C@H]1CCCN1Cc1ccc2c(c1)[nH]/c(=N\C(=O)c1ccnc(-c3ccccc3OC)c1)n2[C@H]1CC[C@@H](O)CC1 [I-152] |  |  | 4 |  |  |
| COc1ccccc1-c1cc(C(=O)/N=c2\[nH]c3cc(CN4CCCC(OC)C4)ccc3n2[C@H]2CC[C@@H](O)CC2)ccn1 (some centres unmarked) [I-153] |  |  | 4 |  |  |
| Cn1cc(-c2cc(C(=O)/N=c3\[nH]c4ccccc4n3[C@@H]3CCCC[C@H]3O)ccn2)cn1 [I-154] |  |  | 9 |  |  |
| COc1ccccc1-c1cc(C(=O)/N=c2\[nH]c3ccccc3n2[C@H]2COCC[C@@H]2O)ccn1 [I-155] |  |  | 5 |  |  |
| COc1ccccc1-c1cc(C(=O)/N=c2\[nH]c3cc(CN4CC[C@@H](OC)C4)ccc3n2[C@H]2CC[C@@H](O)CC2)ccn1 [I-159] |  |  | 6 |  |  |
| O=C(/N=c1\[nH]c2ccccc2n1[C@H]1CC[C@@H](O)CC1)c1ccnc(-c2ccccc2Cl)c1 [I-160] |  |  | 6 |  |  |

| SMILES | IC50 [1, 3] [nM] | IC50 (EGFR wt; [4]) [nM] | IC50 [2] [nM] | IC50 [1, 5] [nM] | IC50 (EGFR wt; [6]) [nM] |
| --- | --- | --- | --- | --- | --- |
| COc1cnccc1-c1cc(C(=O)/N=c2\[nH]c3ccccc3n2CC(C)(C)O)ccn1 [I-164] |  |  | 7 |  |  |
| Cn1cc(-c2cc(C(=O)/N=c3\[nH]c4cc(C5CCCCO5)ccc4n3CC(C)(C)O)ccn2)cn1 (centres unmarked) [I-165] |  |  | 7 |  |  |
| Cc1ccccc1-c1cc(C(=O)/N=c2\[nH]c3ccccc3n2[C@H]2CC[C@@H](O)CC2)ccn1 [I-166] |  |  | 7 |  |  |
| COc1ccccc1-c1cc(C(=O)/N=c2\[nH]c3ccccc3n2[C@H]2CCC[C@H](O)C2)ccn1 [I-170] |  |  | 8 |  |  |
| CNc1ccc2c(c1)[nH]/c(=N\C(=O)c1ccnc(-c3cnn(C)c3)c1)n2CC(C)(C)O [I-172] |  |  | 9 |  |  |
| COc1ncccc1-c1cc(C(=O)/N=c2\[nH]c3ccccc3n2[C@H]2CC[C@@H](O)CC2)ccn1 [I-173] |  |  | 9 |  |  |
| O=C(/N=c1\[nH]c2ccccc2n1[C@H]1CC[C@@H](O)CC1)c1ccnc(-c2coc3ccccc23)c1 [I-174] |  |  | 9 |  |  |
| O=C(/N=c1\[nH]c2ccccc2n1[C@H]1CC[C@@H](O)CC1)c1ccnc(-c2ccc(F)cc2)c1 [I-177] |  |  | 12 |  |  |
| Cn1cc(-c2cc(C(=O)/N=c3\[nH]c4cc(CCC(C)(C)O)ccc4n3CC(C)(C)O)ccn2)cn1 [I-178] |  |  | 12 |  |  |
| Cn1cnc2c(-c3cc(C(=O)/N=c4\[nH]c5ccccc5n4[C@H]4CC[C@@H](O)CC4)ccn3)cccc21 [I-182] |  |  | 15 |  |  |
| COc1ccccc1-c1cc(C(=O)/N=c2\[nH]c3ccccc3n2[C@H]2CCCC[C@H]2O)ccn1 [I-186] |  |  | 23 |  |  |
| O=C(/N=c1\[nH]c2ccccc2n1[C@H]1CC[C@@H](O)CC1)c1ccnc(-c2ccccc2OC(F)(F)F)c1 [I-187] |  |  | 24 |  |  |
| CC(C)(O)Cn1/c(=N/C(=O)c2ccnc(-n3ccc4cccnc43)c2)[nH]c2ccccc21 [I-188] |  |  | 30 |  |  |
| Cn1cc(-c2cc(C(=O)/N=c3\[nH]c4ccccc4n3[C@H]3COCC[C@@H]3O)ccn2)cn1 [I-190] |  |  | 33 |  |  |
| CCOC(=O)CCc1ccc2c(c1)[nH]/c(=N\C(=O)c1ccnc(-c3cnn(C)c3)c1)n2CC(C)(C)O [I-193] |  |  | 68 |  |  |
| Cn1cc(-c2cc(C(=O)/N=c3\[nH]c4cc(F)ccc4n3CC(C)(C)O)ccn2)cn1 [I-194] |  |  | 74 |  |  |
| Cn1cc(-c2cc(C(=O)/N=c3\[nH]c4ccc(F)cc4n3CC(C)(C)O)ccn2)cn1 [I-195] |  |  | 85 |  |  |
| Cn1cc(-c2cc(C(=O)/N=c3\[nH]c4cc(C5CCNCC5)ccc4n3[C@H]3CC[C@@H](O)CC3)ccn2)cn1 [I-218] |  |  | 18 |  |  |
| O=C(/N=c1\[nH]c2ccccc2n1[C@H]1CC[C@@H](O)CC1)c1ccnc(-n2ccnc2)c1 [I-226] |  |  | 7 |  |  |
| Cc1cc(C(=O)/N=c2\[nH]c3ccc(N4CCN(C)CC4)cc3n2[C@H]2CC[C@@H](O)CC2)cc(-c2cnn(C)c2)n1 [I-227] |  |  | 2 |  |  |
| Cc1cc(C(=O)/N=c2\[nH]c3ccc(C4CCN(C)CC4)cc3n2C2CCCCC2)cc(-c2cnn(C)c2)n1 [I-228] |  |  | 2 |  |  |
| COCCN1CCC(c2ccc3[nH]/c(=N\C(=O)c4cc(C)nc(-c5cnn(C)c5)c4)n(C4CCCCC4)c3c2)CC1 [I-229] |  |  | 23 |  |  |
| Cc1cc2c(cc1N(C)C)[nH]/c(=N\C(=O)c1ccnc(-c3cnn(C)c3)c1)n2CC(C)(C)O [I-231] |  |  | 63 |  |  |
| CN1CCN(c2ccc3[nH]/c(=N\C(=O)c4cc(F)nc(-c5cnn(C)c5)c4)n(C4CCCCC4)c3c2)CC1 [I-232] |  |  | 1 |  |  |
| Cc1cc(C(=O)/N=c2\[nH]c3ccc(N4CCN(C)CC4)cc3n2C2CCCCC2)cc(-c2cnn(C)c2)n1 [I-233] |  |  | 2 |  |  |
| COc1ccccc1-c1cc(C(=O)/N=c2\[nH]c3ccccc3n2[C@@H]2CC[C@@H](O)[C@@H](O)C2)ccn1 [I-234] |  |  | 4 |  |  |
